Assay results published in patent US20230203041A1, “ANTAGONISTS OF THE ADENOSINE A2A RECEPTOR” (AdoRx Therapeutics Limited, priority 2020, published 2023).

Tests used:
[1] = molecular target: T1, human Adenosine A1 receptor (Homo sapiens, UniProt P30542); assay: Adenosine receptor TR-FRET binding assay (CA200645 displacement), A1
T1 sequence (P30542 1-326): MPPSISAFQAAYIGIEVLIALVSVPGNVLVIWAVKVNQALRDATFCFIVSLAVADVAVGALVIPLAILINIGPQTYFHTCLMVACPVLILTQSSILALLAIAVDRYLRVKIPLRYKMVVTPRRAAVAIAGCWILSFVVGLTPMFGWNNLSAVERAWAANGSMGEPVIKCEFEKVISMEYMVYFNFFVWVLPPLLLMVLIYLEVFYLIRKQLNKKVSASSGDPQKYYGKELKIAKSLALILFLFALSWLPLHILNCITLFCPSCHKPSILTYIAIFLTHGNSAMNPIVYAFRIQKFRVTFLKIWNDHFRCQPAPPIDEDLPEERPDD

[2] = molecular target: T2, human Adenosine A2b receptor (Homo sapiens, UniProt P29275); assay: Adenosine receptor TR-FRET binding assay (CA200645 displacement), A2b; settings: 30 nM CA200645, CHO cell membranes, 2 hours at room temperature
T2 construct: expressed in transfected cells; host or cells: CHO cell membranes
T2 sequence (P29275 1-332): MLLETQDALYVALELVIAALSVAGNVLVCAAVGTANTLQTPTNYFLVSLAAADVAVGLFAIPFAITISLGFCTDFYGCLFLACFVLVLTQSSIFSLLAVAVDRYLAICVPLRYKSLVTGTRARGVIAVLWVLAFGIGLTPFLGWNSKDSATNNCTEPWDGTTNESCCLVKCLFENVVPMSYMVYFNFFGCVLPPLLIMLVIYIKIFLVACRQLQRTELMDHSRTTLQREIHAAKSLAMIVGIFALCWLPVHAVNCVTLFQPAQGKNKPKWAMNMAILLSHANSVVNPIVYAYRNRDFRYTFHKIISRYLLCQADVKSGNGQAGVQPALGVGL

[3] = molecular target: T3, human Adenosine A2a receptor (Homo sapiens, UniProt P29274); assay: Adenosine receptor TR-FRET binding assay (CA200645 displacement), A2a; settings: 100 nM CA200645, CHO cell membranes, 2 hours at room temperature
T3 construct: expressed in transfected cells; host or cells: CHO cell membranes
T3 sequence (P29274 whole entry): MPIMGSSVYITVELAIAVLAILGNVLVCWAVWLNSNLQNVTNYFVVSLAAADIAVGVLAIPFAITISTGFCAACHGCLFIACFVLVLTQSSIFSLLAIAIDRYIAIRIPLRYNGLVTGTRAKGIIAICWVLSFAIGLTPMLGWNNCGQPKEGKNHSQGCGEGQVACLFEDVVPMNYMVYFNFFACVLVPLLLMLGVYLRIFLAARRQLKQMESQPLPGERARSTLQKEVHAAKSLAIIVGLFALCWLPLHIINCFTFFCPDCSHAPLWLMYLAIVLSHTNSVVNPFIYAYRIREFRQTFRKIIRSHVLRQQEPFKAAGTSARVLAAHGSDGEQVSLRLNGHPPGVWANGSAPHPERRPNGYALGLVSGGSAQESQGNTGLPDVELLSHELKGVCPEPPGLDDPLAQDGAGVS

[4] = molecular target: T4, human Adenosine A3 receptor (Homo sapiens, UniProt P0DMS8); assay: Adenosine receptor TR-FRET binding assay (CA200645 displacement), A3
T4 sequence (P0DMS8 1-318): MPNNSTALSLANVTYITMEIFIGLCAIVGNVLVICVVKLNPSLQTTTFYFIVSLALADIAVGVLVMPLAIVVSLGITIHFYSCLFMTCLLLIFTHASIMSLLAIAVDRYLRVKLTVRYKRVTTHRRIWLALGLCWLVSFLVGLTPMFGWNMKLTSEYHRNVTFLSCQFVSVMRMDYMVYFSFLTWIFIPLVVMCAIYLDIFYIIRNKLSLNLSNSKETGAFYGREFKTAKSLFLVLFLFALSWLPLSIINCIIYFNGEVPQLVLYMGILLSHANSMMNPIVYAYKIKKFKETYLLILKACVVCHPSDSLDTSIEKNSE

| Ki [1] | Ki [2] | Ki [3] | Ki [4] | SMILES |
| --- | --- | --- | --- | --- |
| 0.8 µM | 0.053 µM | 0.0174 µM | > 1 µM | Cc1cc(-c2c(-c3cccc(C#N)c3)nn3ccc(N/C(N)=N\C#N)nc23)cc(Cl)n1 [Example 32, 1-[3-(2-Chloro-6-methyl-4-pyridyl)-2-(3-cyanophenyl)pyrazolo[1,5-a]pyrimidin-5-yl]-2-cyano-guanidine] |
| 0.145 µM | 0.023 µM | 0.0057 µM | > 1 µM | Cc1cc(-c2c(-c3cccc(C#N)c3)nn3ccc(N4CCN[C@@H](C(C)(C)O)C4)nc23)cc(Cl)n1 [Example 2.40] |
| 0.319 µM | 1.32 µM | 0.31 µM | 0.923 µM | N#Cc1c(-c2ccco2)nn2ccc(NCCN3CCN(Cc4ccccc4)CC3)nc12 [Example 37.12] |
| 0.361 µM | 0.007 µM | 0.0009 µM | > 1 µM | Cc1cc(-c2c(-c3cccc(C#N)c3)nn3ccc(C(=O)NC[C@@H](C)O)nc23)cc(Cl)n1 [Example 6.5, 3-(2-Chloro-6-methyl-4-pyridyl)-2-(3-cyanophenyl)-N-[(2R)-2-hydroxypropyl]pyrazolo[1,5-a]pyrimidine-5-carboxamide] |
| 0.303 µM | 0.001 µM | 0.0137 µM | 1.18 µM | Cc1cc(-c2c(-c3cccc(C#N)c3)nn3ccc(NS(C)(=O)=O)nc23)cc(Cl)n1 [Example 16, N-[3-(2-Chloro-6-methyl-4-pyridyl)-2-(3-cyanophenyl)pyrazolo[1,5-a]pyrimidin-5-yl]methanesulfonamide] |
| 0.076 µM | 0.057 µM | 0.0013 µM | > 1 µM | Cc1cc(-c2c(-c3cccc(C#N)c3)nn3ccc(N4CCN(C)C(CO)C4)nc23)cc(Cl)n1 (stereo not drawn) [Example 2.7] |
| 0.438 µM | 0.017 µM | 0.0092 µM | > 1 µM | Cc1cc(-c2c(-c3cccc(C#N)c3)nn3ccc(C(=O)NCC4CNC(=O)CO4)nc23)cc(C)n1 (stereo not drawn) [Example 92.5] |
| 0.126 µM | 0.159 µM | 0.0152 µM | > 1 µM | CCn1nccc1-c1c(-c2cccc(C#N)c2)nn2ccc(N3CC4CCC(C3)O4)nc12 [Example 33.2] |
| 1.8 µM | 0.416 µM | 0.44 µM | > 1 µM | CCn1nccc1-c1c(-c2cccc(C#N)c2)nn2ccc(N3CCS(=N)(=O)CC3)nc12 [Example 33.7] |
| 0.355 µM | 1.74 µM | 0.103 µM | 8.46 µM | N#Cc1c(-c2ccco2)nn2ccc(NCCCO)nc12 [Example 55.1, 2-(2-Furyl)-5-(3-hydroxypropylamino)pyrazolo[1,5-a]pyrimidine-3-carbonitrile] |
| 0.028 µM | 0.051 µM | 0.0007 µM | > 1 µM | Cc1cc(-c2c(-c3cccc(C#N)c3)nn3ccc(C(=O)NCC4(C)CCC(=O)NC4)nc23)cc(C)n1 (stereo not drawn) [Example 92.18] |
| 0.004 µM | 0.002 µM | 0.0018 µM | > 1 µM | Cc1cc(-c2c(-c3cccc(C#N)c3)nn3ccc(N)nc23)cc(C)[n+]1[O-] [Example 27, 3-[5-Amino-3-(2,6-dimethyl-1-oxido-pyridin-1-ium-4-yl)pyrazolo[1,5-a]pyrimidin-2-yl]benzonitrile] |
| 0.245 µM | 0.017 µM | 0.002 µM | > 1 µM | Cc1cc(-c2c(-c3cccc(C#N)c3)nn3ccc(C(=O)NC45CC(N)(C4)C5)nc23)cc(Cl)n1 [Example 7.1, N-(3-Amino-1-bicyclo[1.1.1]pentanyl)-3-(2-chloro-6-methyl-4-pyridyl)-2-(3-cyanophenyl)pyrazolo[1,5-a]pyrimidine-5-carboxamide] |
| 0.301 µM | 0.037 µM | 0.0012 µM | > 1 µM | Cc1cc(-c2c(-c3cccc(C#N)c3)nn3ccc(C(=O)N[C@H]4C[C@](C)(O)C4)nc23)cc(C)n1 [Example 92.20] |
| 0.15 µM | 0.019 µM | 0.0003 µM | 0.599 µM | Cc1cc(-c2c(-c3cccc(C#N)c3)nn3ccc(C(=O)NCC4CCCNC4=O)nc23)cc(C)n1 (stereo not drawn) [Example 92.15] |
| 1.57 µM | 2.23 µM | 0.237 µM | 5.14 µM | N#Cc1c(-c2ccco2)nn2ccc(N3CCNCC3)nc12 [Example 41, 2-(2-Furyl)-5-piperazin-1-yl-pyrazolo[1,5-a]pyrimidine-3-carbonitrile] |
| 0.184 µM | 0.015 µM | 0.002 µM | > 1 µM | Cc1cc(-c2c(-c3cccc(C#N)c3)nn3ccc(NC(=O)[C@](C)(O)C(F)(F)F)nc23)cc(C)n1 [Example 94.3, (2S)—N-[2-(3-Cyanophenyl)-3-(2,6-dimethyl-4-pyridyl)pyrazolo[1,5-a]pyrimidin-5-yl]-3,3,3-trifluoro-2-hydroxy-2-methyl-propanamide] |
| 1.51 µM | 0.013 µM | 0.005 µM | > 1 µM | Cc1cc(-c2c(-c3cccc(C#N)c3)nn3ccc(C(=O)NCC4(C)NC(=O)NC4=O)nc23)c(F)c(C)n1 (stereo not drawn) [Example 101, 2-(3-Cyanophenyl)-3-(3-fluoro-2,6-dimethyl-4-pyridyl)-N-[(4-methyl-2,5-dioxo-imidazolidin-4-yl)methyl]pyrazolo[1,5-a]pyrimidine-5-carboxamide] |
| 0.137 µM | 0.003 µM | 0.0049 µM | > 1 µM | Cc1cc(-c2c(-c3cccc(C#N)c3)nn3ccc(C(=O)NCC4CNCCO4)nc23)cc(Cl)n1 (stereo not drawn) [Example 7.11, 3-(2-Chloro-6-methyl-4-pyridyl)-2-(3-cyanophenyl)-N-(morpholin-2-ylmethyl)pyrazolo[1,5-a]pyrimidine-5-carboxamide] |
| 1.41 µM | 0.009 µM | 0.0265 µM | > 1 µM | Cc1cc(-c2c(-c3cccc(C#N)c3)nn3ccc(N4CCN(S(N)(=O)=O)CC4)nc23)cc(Cl)n1 [Example 2.37] |
| 0.107 µM | 0.019 µM | 0.0013 µM | > 1 µM | Cc1cc(-c2c(-c3cccc(C#N)c3)nn3ccc(C(=O)NCCN4CCN(c5ccccc5)CC4)nc23)cc(Cl)n1 [Example 5.4] |
| 0.213 µM | 0.006 µM | 0.0139 µM | > 1 µM | Cc1cc(-c2c(-c3cccc(C#N)c3)nn3ccc(N[C@H]4CCCNC4)nc23)cc(Cl)n1 [Example 4.7] |
| 0.366 µM | 0.023 µM | 0.0077 µM | > 1 µM | Cc1cc(-c2c(-c3cccc(C#N)c3)nn3ccc(N4CCS(=N)(=O)CC4)nc23)cc(Cl)n1 [Example 2.26] |
| 0.649 µM | 6.24 µM | 0.587 µM | 0.16 µM | c1coc(-c2cc3nc(NCc4nccs4)ccn3n2)c1 [Example 74, 2-(2-Furyl)-N-(thiazol-2-ylmethyl)pyrazolo[1,5-a]pyrimidin-5-amine] |
| 0.317 µM | 0.043 µM | 0.0107 µM | > 1 µM | Cc1cc(-c2c(-c3cccc(C#N)c3)nn3ccc(NC4CCS(=O)(=O)CC4)nc23)cc(Cl)n1 [Example 2.27] |
| 0.262 µM | 0.028 µM | 0.0084 µM | > 1 µM | Cc1cc(-c2c(-c3cccc(C#N)c3)nn3ccc(NC(=O)N4CCC(C)(C#N)CC4)nc23)cc(C)n1 [Example 30.5, 4-Cyano-N-[2-(3-cyanophenyl)-3-(2,6-dimethyl-4-pyridyl)pyrazolo[1,5-a]pyrimidin-5-yl]-4-methyl-piperidine-1-carboxamide] |
| 0.459 µM | 0.024 µM | 0.0029 µM | > 1 µM | Cc1cc(-c2c(-c3cccc(C#N)c3)nn3ccc(C(=O)N[C@@H]4CN(C)C[C@H]4O)nc23)cc(C)n1 [Example 92.32] |
| 0.167 µM | 0.022 µM | 0.0007 µM | > 1 µM | Cc1cc(-c2c(-c3cccc(C#N)c3)nn3ccc(C(=O)NC(C)C4(O)COC4)nc23)cc(C)n1 (stereo not drawn) [Example 92.6] |
| 0.087 µM | 0.012 µM | 0.001 µM | > 1 µM | Cc1cc(-c2c(-c3cccc(C#N)c3)nn3ccc(N[C@@H]4CCOC4)nc23)cc(Cl)n1 [Example 2.6] |
| 0.124 µM | 0.021 µM | 0.0118 µM | > 1 µM | Cc1cc(-c2c(-c3cccc(C#N)c3)nn3ccc(N4CCNCC4)nc23)cc(Cl)n1 [Example 2.29] |
